Measured values from patent publication US9120727B2, “Process for the preparation of pleuromutilins” (NABRIVA THERAPEUTICS AG, priority 2010, dated 2015).
Counter-ions that a name gives are not always drawn.

Key:
[1] = Solubility of crystalline salts in water, aqueous vehicles and biorelevant media; assay type: physicochemical; conditions: 0.9% NaCl solution, FaSSIF and FeSSIF
[2] = tested on: Staphylococcus aureus ATCC49951; assay: Minimum inhibitory concentration (MIC) in accordance with CLSI recommendations; assay type: cell-based
Experimental: (§1) The antimicrobial, e.g. antibacterial activity of 14-O-{[(4-amino-2-hydroxy-cyclohexyl)-sulfanyl]-acetyl}-mutilins was outlined in WO2008/113089. […] The minimum inhibitory concentration (MIC) was determined in accordance with CLSI recommendations.

[3] = tested on: Streptococcus pneumoniae ATCC49619; assay: as above; assay type: cell-based
Experimental: as §1

[4] = Comparative stability of crystalline and amorphous salts of compound I, stored at 60° C., HPLC; assay type: physicochemical
Source text: In the following TABLE 4 comparative stability data of the corresponding crystalline and amorphous salts of compound I are shown. [table]

[5] = 28 d at 60° C., * sample did not fully dissolve in water, suspension analyzed

Compound | solubility [1] | MIC [2] [mg/L] | MIC [3] [mg/L] | Area % of 14-O-{[(1R,2R,4R)-4-amino-2-hydroxy-cyclohexylsulfanyl]-acetyl}-mutilin (compound I) by HPLC stored at 60° C. [4, 5] [Area %] | Area % of 14-O-{[(1R,2R,4R)-4-amino-2-hydroxy-cyclohexylsulfanyl]-acetyl}-mutilin (compound I) by HPLC stored at 60° C. ([4]; Initial) [Area %]
C=C[C@]1(C)C[C@@H](OC(=O)CS[C@@H]2CC[C@@H](N)C[C@H]2O)[C@]2(C)C(C)CC[C@]3(CCC(=O)[C@H]32)[C@@H](C)[C@@H]1O (stereo partly drawn) [Hydrogen maleate crystalline, 14-O-{[(1R,2R,4R)-4-Amino-2-hydroxy-cyclohexylsulfanyl]-acetyl}-mutilin hydrogenmaleate, crystalline Form 1] | surprisingly high |  |  |  | 
C=C[C@]1(C)C[C@@H](OC(=O)CS[C@@H]2CC[C@@H](N)C[C@H]2O)[C@]2(C)C(C)CC[C@]3(CCC(=O)[C@H]32)[C@@H](C)[C@@H]1O (stereo partly drawn) [compound of formula I, 14-O-{[(1R,2R,4R)-4-amino-2-hydroxy-cyclohexylsulfanyl]-acetyl}-mutilin] |  | < 0.4 | < 0.4 |  | 
C=C[C@]1(C)C[C@@H](OC(=O)CS[C@@H]2CC[C@@H](N)C[C@H]2O)[C@]2(C)C(C)CC[C@]3(CCC(=O)[C@H]32)[C@@H](C)[C@@H]1O (stereo partly drawn) [L-Lactate crystalline, 14-O-{[(1R,2R,4R)-4-Amino-2-hydroxy-cyclohexylsulfanyl]-acetyl}-mutilin L-lactate, crystalline Form 1] | surprisingly high |  |  | 98.3 | 99.4
C=C[C@]1(C)C[C@@H](OC(=O)CS[C@@H]2CC[C@@H](N)C[C@H]2O)[C@]2(C)C(C)CC[C@]3(CCC(=O)[C@H]32)[C@@H](C)[C@@H]1O (stereo partly drawn) [Acetate (Form B) crystalline, 14-O-{[(1R,2R,4R)-4-Amino-2-hydroxy-cyclohexyl-sulfanyl]-acetyl}-mutilin acetate, crystalline Form B] |  |  |  | 98.9 | 99.5
